Laboratory results taken from the supplement of paper PMC10307832.

What was measured:
Experiment in all cases: relative viability (nuclei count vs DMSO), 5 days (fraction); higher = more cells survive
[1] = system: A-427
How it was run: (§1)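 One day after seeding in 1536-well plates, lung cancer cell lines were dosed by pin tool. Dosing was either single-drug or a fixed anchor-drug dose plus five library-drug doses (not always all listed) in √10 steps. After 5 days, nuclei were stained in one fix-and-stain step and counted on 4× images, and relative viability is the nuclei count of treated wells over that of vehicle wells, given as the median of duplicate plates.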

[2] = system: COR-L 105
How it was run: as §1

[3] = system: EPLC-272H
How it was run: as §1

[4] = system: HCC-366
How it was run: as §1

[5] = system: HCC-78
How it was run: as §1

[6] = system: HOP-62
How it was run: as §1

[7] = system: LC-2-ad
How it was run: as §1

[8] = system: LU99A
How it was run: as §1

[9] = system: LXF-289
How it was run: as §1

[10] = system: NCI-H1666
How it was run: as §1

[11] = system: NCI-H1792
How it was run: as §1

[12] = system: NCI-H1793
How it was run: as §1

[13] = system: NCI-H1915
How it was run: as §1

[14] = system: NCI-H1944
How it was run: as §1

[15] = system: NCI-H2009
How it was run: as §1

[16] = system: NCI-H2085
How it was run: as §1

[17] = system: NCI-H2170
How it was run: as §1

[18] = system: NCI-H358
How it was run: as §1

[19] = system: NCI-H460
How it was run: as §1

[20] = system: SK-LU-1
How it was run: as §1

[21] = system: SW 900
How it was run: as §1

[22] = system: UMC-11
How it was run: as §1

Structure (SMILES): COc1cc2nccc(Oc3ccc(NC(=O)Nc4cc(C)on4)c(Cl)c3)c2cc1OC [Tivozanib] + Cc1nc(Nc2ncc(C(=O)Nc3c(C)cccc3Cl)s2)cc(N2CCN(CCO)CC2)n1 [Dasatinib] (partner 0.075 µM)
- relative viability ([1]; first compound 0.005 µM): 0.645
- relative viability ([1]; first compound 0.01581 µM): 0.669
- relative viability ([1]; first compound 0.05 µM): 0.699
- relative viability ([1]; first compound 0.1581 µM): 0.538
- relative viability ([1]; first compound 0.5 µM): 0.686
- relative viability ([2]; first compound 0.005 µM): 0.34
- relative viability ([2]; first compound 0.01581 µM): 0.361
- relative viability ([2]; first compound 0.05 µM): 0.467
- relative viability ([2]; first compound 0.1581 µM): 0.269
- relative viability ([2]; first compound 0.5 µM): 0.354
- relative viability ([3]; first compound 0.005 µM): 0.378
- relative viability ([3]; first compound 0.01581 µM): 0.375
- relative viability ([3]; first compound 0.05 µM): 0.447
- relative viability ([3]; first compound 0.1581 µM): 0.263
- relative viability ([3]; first compound 0.5 µM): 0.413
- relative viability ([4]; first compound 0.005 µM): 0.582
- relative viability ([4]; first compound 0.01581 µM): 0.601
- relative viability ([4]; first compound 0.05 µM): 0.671
- relative viability ([4]; first compound 0.1581 µM): 0.727
- relative viability ([4]; first compound 0.5 µM): 0.587
- relative viability ([5]; first compound 0.005 µM): 0.365
- relative viability ([5]; first compound 0.01581 µM): 0.387
- relative viability ([5]; first compound 0.05 µM): 0.466
- relative viability ([5]; first compound 0.1581 µM): 0.263
- relative viability ([5]; first compound 0.5 µM): 0.362
- relative viability ([6]; first compound 0.005 µM): 0.638
- relative viability ([6]; first compound 0.01581 µM): 0.668
- relative viability ([6]; first compound 0.05 µM): 0.633
- relative viability ([6]; first compound 0.1581 µM): 0.583
- relative viability ([6]; first compound 0.5 µM): 0.698
- relative viability ([7]; first compound 0.005 µM): 0.458
- relative viability ([7]; first compound 0.01581 µM): 0.504
- relative viability ([7]; first compound 0.05 µM): 0.615
- relative viability ([7]; first compound 0.1581 µM): 0.268
- relative viability ([7]; first compound 0.5 µM): 0.208
- relative viability ([8]; first compound 0.005 µM): 0.356
- relative viability ([8]; first compound 0.01581 µM): 0.599
- relative viability ([8]; first compound 0.05 µM): 0.656
- relative viability ([8]; first compound 0.1581 µM): 0.489
- relative viability ([8]; first compound 0.5 µM): 0.474
- relative viability ([9]; first compound 0.005 µM): 0.214
- relative viability ([9]; first compound 0.01581 µM): 0.203
- relative viability ([9]; first compound 0.05 µM): 0.279
- relative viability ([9]; first compound 0.1581 µM): 0.264
- relative viability ([9]; first compound 0.5 µM): 0.216
- relative viability ([10]; first compound 0.005 µM): 0.785
- relative viability ([10]; first compound 0.01581 µM): 0.831
- relative viability ([10]; first compound 0.05 µM): 0.801
- relative viability ([10]; first compound 0.1581 µM): 0.819
- relative viability ([10]; first compound 0.5 µM): 0.825
- relative viability ([11]; first compound 0.005 µM): 0.77
- relative viability ([11]; first compound 0.01581 µM): 0.819
- relative viability ([11]; first compound 0.05 µM): 0.815
- relative viability ([11]; first compound 0.1581 µM): 0.843
- relative viability ([11]; first compound 0.5 µM): 0.848
- relative viability ([12]; first compound 0.005 µM): 0.351
- relative viability ([12]; first compound 0.01581 µM): 0.355
- relative viability ([12]; first compound 0.05 µM): 0.388
- relative viability ([12]; first compound 0.1581 µM): 0.204
- relative viability ([12]; first compound 0.5 µM): 0.428
- relative viability ([13]; first compound 0.005 µM): 0.279
- relative viability ([13]; first compound 0.01581 µM): 0.3
- relative viability ([13]; first compound 0.05 µM): 0.3
- relative viability ([13]; first compound 0.1581 µM): 0.289
- relative viability ([13]; first compound 0.5 µM): 0.272
- relative viability ([14]; first compound 0.005 µM): 0.236
- relative viability ([14]; first compound 0.01581 µM): 0.246
- relative viability ([14]; first compound 0.05 µM): 0.208
- relative viability ([14]; first compound 0.1581 µM): 0.192
- relative viability ([14]; first compound 0.5 µM): 0.208
- relative viability ([15]; first compound 0.005 µM): 0.31
- relative viability ([15]; first compound 0.01581 µM): 0.299
- relative viability ([15]; first compound 0.05 µM): 0.333
- relative viability ([15]; first compound 0.1581 µM): 0.262
- relative viability ([15]; first compound 0.5 µM): 0.22
- relative viability ([16]; first compound 0.005 µM): 0.226
- relative viability ([16]; first compound 0.01581 µM): 0.207
- relative viability ([16]; first compound 0.05 µM): 0.233
- relative viability ([16]; first compound 0.1581 µM): 0.315
- relative viability ([16]; first compound 0.5 µM): 0.224
- relative viability ([17]; first compound 0.005 µM): 0.599
- relative viability ([17]; first compound 0.01581 µM): 0.494
- relative viability ([17]; first compound 0.05 µM): 0.616
- relative viability ([17]; first compound 0.1581 µM): 0.348
- relative viability ([17]; first compound 0.5 µM): 0.569
- relative viability ([18]; first compound 0.005 µM): 0.136
- relative viability ([18]; first compound 0.01581 µM): 0.165
- relative viability ([18]; first compound 0.05 µM): 0.174
- relative viability ([18]; first compound 0.1581 µM): 0.141
- relative viability ([18]; first compound 0.5 µM): 0.184
- relative viability ([19]; first compound 0.005 µM): 0.401
- relative viability ([19]; first compound 0.01581 µM): 0.486
- relative viability ([19]; first compound 0.05 µM): 0.549
- relative viability ([19]; first compound 0.1581 µM): 0.551
- relative viability ([19]; first compound 0.5 µM): 0.529
- relative viability ([20]; first compound 0.005 µM): 0.165
- relative viability ([20]; first compound 0.01581 µM): 0.173
- relative viability ([20]; first compound 0.05 µM): 0.162
- relative viability ([20]; first compound 0.1581 µM): 0.19
- relative viability ([20]; first compound 0.5 µM): 0.208
- relative viability ([21]; first compound 0.005 µM): 0.566
- relative viability ([21]; first compound 0.01581 µM): 0.53
- relative viability ([21]; first compound 0.05 µM): 0.67
- relative viability ([21]; first compound 0.1581 µM): 0.426
- relative viability ([21]; first compound 0.5 µM): 0.45
- relative viability ([22]; first compound 0.005 µM): 0.416
- relative viability ([22]; first compound 0.01581 µM): 0.46
- relative viability ([22]; first compound 0.05 µM): 0.465
- relative viability ([22]; first compound 0.5 µM): 0.38
